Measured values from PubChem BioAssay AID256 (DTP/NCI, 2004).
Values joined by “and” are separate entries in the source; they are usually repeats but may differ in a detail not shown here. Identical values can stand only once. Inconclusive results and toxic doses are left out. The calls were made as follows: active = survival T/C of 150% or more; inactive = T/C below 125% in these data.

System: CD2F1 mice, L1210 leukemia ip, survival T/C
Assay: NCI In Vivo Anticancer Drug Screen. Data for tumor model L1210 Leukemia (intraperitoneal) in CD2F1 (CDF1) mice
Conditions: endpoint: mean survival time, higher = longer survival
Experimental: The antitumor activity of compounds was measured in mice bearing transplantable tumors. Survival or tumor size were measured and the results are expressed as the measurement made in the treated group (T) divided by the measurement made in the vehicle treated control group (C). The tumor model used in this assay is L1210 Leukemia (intraperitoneal) in CD2F1 (CDF1) mice

[1] = dose: 12.5 mg/kg/injection, schedule: Q01DX009 (ip), vehicle: other
[2] = dose: 25.0 mg/kg/injection, schedule: Q01DX009 (ip), vehicle: other
[3] = dose: 50.0 mg/kg/injection, schedule: Q01DX009 (ip), vehicle: other
[4] = dose: 100.0 mg/kg/injection, schedule: Q01DX009 (ip), vehicle: other
[5] = dose: 200.0 mg/kg/injection, schedule: Q01DX009 (ip), vehicle: other
[6] = dose: 100.0 mg/kg/injection, schedule: Q01DX009 (ip), vehicle: saline with Tween-80
[7] = dose: 200.0 mg/kg/injection, schedule: Q01DX009 (ip), vehicle: saline with Tween-80
[8] = dose: 400.0 mg/kg/injection, schedule: Q01DX009 (ip), vehicle: saline with Tween-80
[9] = dose: 100.0 mg/kg/injection, schedule: Q01DX001 (ip), vehicle: saline
[10] = dose: 200.0 mg/kg/injection, schedule: Q01DX001 (ip), vehicle: saline
[11] = dose: 400.0 mg/kg/injection, schedule: Q01DX001 (ip), vehicle: saline
[12] = dose: 100.0 mg/kg/injection, schedule: Q04DX003 (ip), vehicle: saline
[13] = dose: 100.0 mg/kg/injection, schedule: Q04DX003 (ip), vehicle: saline with Tween-80
[14] = dose: 200.0 mg/kg/injection, schedule: Q04DX003 (ip), vehicle: saline with Tween-80
[15] = dose: 400.0 mg/kg/injection, schedule: Q04DX003 (ip), vehicle: saline with Tween-80

Measured: T/C

COC(=O)NC(=O)c1cn[nH]n1
inactive: [1] 98 % of control | [2] 103 % of control | [3] 97 % of control | [4] 101 % of control | [5] 95 % of control

COC(=O)[C@@H]1c2cc3c(c(O)c2[C@@H](OC2OC(C)C(OC)C(C)(OC)C2OC)C[C@]1(C)O)C(=O)c1c(O)cc2c(c1C3=O)O[C@H]1O[C@]2(C)[C@H](O)[C@@H](N(C)C)[C@@H]1O (stereo not given in full)
inactive: dose: 0.25 mg/kg/injection, schedule: Q01DX009 (ip), vehicle: other 120 % of control and 112 % of control | dose: 0.5 mg/kg/injection, schedule: Q01DX009 (ip), vehicle: other 116 % of control and 108 % of control | dose: 1.0 mg/kg/injection, schedule: Q01DX009 (ip), vehicle: other 93 % of control and 110 % of control

C[N+](C)(C)C(C1=CCCC1=O)c1ccccc1 (stereo not given)
inactive: dose: 75.0 mg/kg/injection, schedule: Q01DX001 (ip), vehicle: saline 103 % of control | dose: 150.0 mg/kg/injection, schedule: Q01DX001 (ip), vehicle: saline 91 % of control | dose: 300.0 mg/kg/injection, schedule: Q01DX001 (ip), vehicle: saline 100 % of control

Cc1ccc([N+](=O)[O-])cc1NC(=O)Nc1ncccn1
inactive: dose: 50.0 mg/kg/injection, schedule: Q01DX009 (ip), vehicle: Klucel (hydroxypropylcellulose) (HPC) 93 % of control | dose: 100.0 mg/kg/injection, schedule: Q01DX009 (ip), vehicle: Klucel (hydroxypropylcellulose) (HPC) 96 % of control | dose: 200.0 mg/kg/injection, schedule: Q01DX009 (ip), vehicle: Klucel (hydroxypropylcellulose) (HPC) 93 % of control

OCCC1=CCCCC1
inactive: [6] 91 % of control | [7] 97 % of control | [8] 98 % of control

Nc1ncnc2c1ncn2C1CC(O)C(O)CO1 (stereo not given)
inactive: [9] 103 % of control | [10] 105 % of control | [11] 105 % of control

CCOc1ccccc1C1N(C)CCCN1C
inactive: dose: 6.25 mg/kg/injection, schedule: Q01DX009 (ip), vehicle: saline with Tween-80 105 % of control | dose: 12.5 mg/kg/injection, schedule: Q01DX009 (ip), vehicle: saline with Tween-80 100 % of control | dose: 25.0 mg/kg/injection, schedule: Q01DX009 (ip), vehicle: saline with Tween-80 110 % of control

CC(N)C(=O)O (stereo not given)
inactive: [9] 106 % of control | [10] 112 % of control | [11] 98 % of control

Oc1c(Cl)c(Cl)c(Cl)c(Cl)c1Cl (tested in a mixture with another compound)
inactive: dose: 25.0 mg/kg/injection, schedule: Q04DX003 (ip), vehicle: saline 96 % of control | dose: 50.0 mg/kg/injection, schedule: Q04DX003 (ip), vehicle: saline 103 % of control | [12] 96 % of control

Nc1nc2c(ncn2-c2ccc(OCCNC(=O)Nc3cccc(S(=O)(=O)F)c3)cc2)c(=O)[nH]1
inactive: dose: 100.0 mg/kg/injection, schedule: Q04DX002 (ip), vehicle: saline with Tween-80 104 % of control | dose: 200.0 mg/kg/injection, schedule: Q04DX002 (ip), vehicle: saline with Tween-80 96 % of control | dose: 400.0 mg/kg/injection, schedule: Q04DX002 (ip), vehicle: saline with Tween-80 90 % of control

Cn1c2cc(Cl)c(Cl)cc2nc2cc3c(cc21)c(Cl)c(=O)c1cc2cc(Cl)c(Cl)cc2cc13
inactive: [12] 95 % of control | dose: 200.0 mg/kg/injection, schedule: Q04DX003 (ip), vehicle: saline 95 % of control | dose: 400.0 mg/kg/injection, schedule: Q04DX003 (ip), vehicle: saline 100 % of control

C=CN1C(=O)NC(C)(CC(C)C)C1=O (stereo not given)
inactive: [13] 94 % of control | [14] 92 % of control | [15] 102 % of control

CCOC(=O)NS(=O)(=O)Nc1ccccc1
inactive: [6] 104 % of control | [7] 102 % of control | [8] 96 % of control

O=C/C=C/Nc1ccccc1
inactive: dose: 100.0 mg/kg/injection, schedule: Q01DX009 (ip), vehicle: saline 94 % of control | dose: 200.0 mg/kg/injection, schedule: Q01DX009 (ip), vehicle: saline 102 % of control | dose: 400.0 mg/kg/injection, schedule: Q01DX009 (ip), vehicle: saline 96 % of control

OC(c1ccccc1)(c1ccccc1)c1ccc(CN2CCCCC2)cc1
inactive: [1] 94 % of control | [2] 92 % of control | [3] 86 % of control | [4] 86 % of control | [5] 87 % of control

CNC(=O)Nc1nccs1
inactive: dose: 50.0 mg/kg/injection, schedule: Q01DX009 (ip), vehicle: saline with Tween-80 105 % of control | [6] 106 % of control | [7] 97 % of control

COc1ccc(OC)c(C2=CCCCCC2)c1OC
inactive: [13] 101 % of control | [14] 101 % of control | [15] 98 % of control
